{"source": "patent US20210393547A1", "about": "“USE OF EMODIN IN TREATING RETINAL ISCHEMIA OR A DISEASE, CONDITION, OR DISORDER ASSOCIATED WITH RETINAL ISCHEMIA” (priority 2020, published 2021)", "key": {"[1]": {"test_system": "retinal ischemia in Wistar rats", "assay": "Cresyl violet stained retinal thickness after retinal ischemia/reperfusion", "format": "in vivo, rat", "settings": "n=10, mean±SE", "description": "Emodin was purchased from Sigma-Aldrich (E7881; 90%; storage at 2-8° C.; from Frangula bark; St. Louis, Mo., United States). Drug administration for different procedures, namely ERG, fluorogold RGC labelling, cresyl violet retinal staining and Western blot assays, were described in Tables 3 to 6. Vehicle or emodin (5 μL) was administered via an intravitreous injection route so that these agents were then able to be directly diffused to the target. Emodin was dissolved in vehicle (DMSO:distilled water=1:3). The defined final cellular concentrations of administered drug were 0.25 or 0.5 μM, which were achieved after 40 times dilution from the stock concentrations, namely 10 or 20 μM, based on an arbitrary definition of the vitreous volume as 200 μL. To test a wider range of dose-response, 4 μM of emodin was thus added in the animal experiments. The Vehicle+IR and Emo+IR groups (pre-ischemic administration of emodin 4, 10 or 20 μM) were subjected to following the experimental procedures; these were initial pre-ischemic intravitreous injection (vehicle or emodin), retinal ischemia induction 1 day later, and sacrifice of the animal on the following day to allow the various post-mortem procedures except ERG. In the post-ischemic treatment group, in order to decrease the number of animals used, the present invention only used a single emodin concentration of 20 μM. Furthermore, intravitreous emodin was given 1 day after initial retinal ischemia induction and animals were sacrificed the following day to allow the performance of various post-mortem procedures as mentioned above. The IOP procedure used raised the IOP and was designed to cause retinal ischemia in Wistar rats and simulate ischemic retinal disorders. The rats were anesthetized and constrained with a sterotaxic frame. A 30-gauge needle connected to an elevated saline bottle was attached to anterior chamber of the rat's eye. The pressure exerted by the saline inside the bottle was controlled to 120 mmHg. This procedure was conducted for 1 hour. Successful retinal ischemia induction was confirmed by observing that the whitening of the retina took place. Throughout the experiments, the animals were kept on heat mats to maintain their temperature. The sham procedure involved keeping the pressure in saline bottle 0 mmHg. After the aforementioned sacrifice of rats, the animals underwent intracardial perfusion with normal saline. The eyeballs were then enucleated, fixed with 4% paraformaldehyde for 1 day at 4° C., dehydrated with ethanol, embedded in paraffin (Tissue-Tek TEC 5; Sakura) and sectioned into 5 μm thickness slices. The sectioned samples were then stained with cresyl violet and examined using a light microscope (Leica). All sectioned retinal samples were photographed under the same magnification (Ilford Pan-F plus film, 50 ASA). The thickness of a retina was determined by sectioning retinal samples at the same distance (1.5 mm from the disc). To evaluate the degree of the injury caused by retinal ischemia, the whole retinal thickness [from the inner limiting membrane (ILM) to the retinal pigment epithelium (RPE) layer] and the inner retinal thickness [from the ILM to the inner nuclear layer (INL)] were measured. All the measurements were carried out by an expert who was unaware of the experimental conditions used to treat the samples."}, "β-catenin": {"test_system": "β-catenin", "assay": "Western blot of ischemic retina, β-catenin to β-actin ratio", "format": "in vivo, rat", "settings": "n=6, mean±S.E", "description": "Emodin was purchased from Sigma-Aldrich (E7881; 90%; storage at 2-8° C.; from Frangula bark; St. Louis, Mo., United States). Drug administration for different procedures, namely ERG, fluorogold RGC labelling, cresyl violet retinal staining and Western blot assays, were described in Tables 3 to 6. Vehicle or emodin (5 μL) was administered via an intravitreous injection route so that these agents were then able to be directly diffused to the target. Emodin was dissolved in vehicle (DMSO:distilled water=1:3). The defined final cellular concentrations of administered drug were 0.25 or 0.5 μM, which were achieved after 40 times dilution from the stock concentrations, namely 10 or 20 μM, based on an arbitrary definition of the vitreous volume as 200 μL. To test a wider range of dose-response, 4 μM of emodin was thus added in the animal experiments. […] Denatured proteins were then obtained using lysis buffer (mammalian protein extraction reagent; […]), the samples were then sonicated and quantified to give equivalent amounts of 30 μg/30 μl/well. […] Finally, the PVDF membranes were then developed using an enhanced chemiluminescent analysis system ([…]) and scanned using an imager (Amersham Imager; LifeSciences); the amount of each protein was quantified according to scanning densitometry."}, "[2]": {"settings": "Emo10+IR: pre-ischemic intravitreous 10 μM emodin"}, "[3]": {"settings": "Emo20+IR: pre-ischemic intravitreous 20 μM emodin"}, "[4]": {"settings": "IR+Emo20: post-ischemic intravitreous 20 μM emodin"}}, "data": [{"compound": "Cc1cc(O)c2c(c1)C(=O)c1cc(O)cc(O)c1C2=O", "note": "[emodin, 6-methyl-1,3,8-trihydroxyanthraquinone]", "values": [{"measurement": "inner retina thickness", "setting": "[1]; Emo4+IR: pre-ischemic intravitreous 4 μM emodin, Sham 79.90, Vehicle+IR 20.97", "result": "38.60±1.01", "unit": "μm"}, {"measurement": "whole retina thickness", "setting": "[1]; Emo4+IR: pre-ischemic intravitreous 4 μM emodin, Sham 186.50, Vehicle+IR 71.80", "result": "87.40±0.60", "unit": "μm"}, {"measurement": "inner retina thickness", "setting": "[1]; [2]", "result": "70.05±0.60", "unit": "μm"}, {"measurement": "whole retina thickness", "setting": "[1]; [2]", "result": "153.20±1.48", "unit": "μm"}, {"measurement": "inner retina thickness", "setting": "[1]; [3]", "result": "70.65±2.06", "unit": "μm"}, {"measurement": "whole retina thickness", "setting": "[1]; [3]", "result": "170.10±0.10", "unit": "μm"}, {"measurement": "inner retina thickness", "setting": "[1]; [4]", "result": "69.65±0.68", "unit": "μm"}, {"measurement": "whole retina thickness", "setting": "[1]; [4]", "result": "125.45±1.68", "unit": "μm"}, {"measurement": "ratio of β-catenin to β-actin protein level", "setting": "β-catenin; Emo10+IR: pre-ischemic intravitreous 10 μM emodin, Sham normalized to 1, Vehicle+IR 1.64", "result": "1.18±0.24"}, {"measurement": "ratio of β-catenin to β-actin protein level", "setting": "β-catenin; Emo20+IR: pre-ischemic intravitreous 20 μM emodin, P=0.02 vs Vehicle+IR, Sham normalized to 1", "result": "1.00±0.19"}]}]}
